One assay has as its system phosphorylated p53. Nature of the assay: Intracellular staining of phosphorylated p53 in B-CLL cells by flow cytometry. Type of assay: cell-based, human. Conditions: 10 μM chlorambucil or 25 nM SJG-136, versus no-drug control (FIG. 4a). As to the method: (§1) B-CLL cells were cultured for 4h and 48h in the presence or absence of one of the drugs under investigation. Cells were harvested by centrifugation and incubated with 10 μL of anti-CD19-RPE-cy5 conjugated antibody. Subsequently the cells were washed with phosphate buffered saline (PBS) at pH 7.2 and then prepared for intracellular staining of phosphorylated p53 and GADD45 (Santa Cruz Biotechnology, Santa Cruz, Calif.) using a commercially available kit (DAKO, Ely, UK). A FITC-labeled secondary antibody was added to the cells (DAKO) and after a final washing step the cells were resuspended in 0.5 mL of 1% paraformaldehyde prior to flow cytometric analysis using a FACScan flow cytometer (Becton Dickinson, Calif.).
(§2) Phosphorylation of p53 and expression of GADD45 were measured in control B-CLL cell samples with no cytotoxic agent added and in B-CLL cell samples in the presence of either chloambucil or SJG-136.
(A flow cytometer gives signals particle by particle.)

Another assay has as its system calf thymus DNA. Conditions: after incubation for 18 hours at 37° C.; cited from earlier work.
For assay [1], the system named is B-CLL cells. Nature of the assay: Flow cytometry-based in vitro apoptosis assay (FSC/SSC, Annexin V) in primary B-CLL cells. The assay is classed as cell-based, human. Conditions: for mean LD50 in previously treated versus untreated patient sub-set: expanded cohort of 46 patients (FIG. 10).
The subject of the next assay is GADD45. Description: Intracellular staining of GADD45 expression in B-CLL cells by flow cytometry. Type of assay: cell-based, human. Conditions: B-CLL cells versus no-drug control (FIG. 4b). The procedure: as §1, §2
Assay [2] has as its system B-CLL cells. Nature of the assay: Flow cytometry-based in vitro apoptosis assay (FSC/SSC, Annexin V) in primary B-CLL cells. Conditions: for mean LD50 in previously treated versus untreated patient sub-set: 34 patient cohort (FIG. 5); for degree of apoptosis in the cell culture: B-CLL cultures of the p53/GADD45 experiment (FIG. 4b). Type of assay: cell-based, human. From the text: Peripheral blood samples from 34 patients with B-CLL (20 untreated and 14 treated) and 10 age-matched normal controls were obtained with the patients' informed consent. B-CLL was defined by clinical criteria as well as cellular morphology and the co-expression of CD19 and CD5 in lymphocytes simultaneously displaying restriction of light-chain rearrangement. Staging was based on the Binet classification system.^14 None of the previously treated patients had received therapy for at least three months prior to this study.
Freshly isolated peripheral blood lymphocytes (1×10^6/ml) were cultured in Eagles medium (Invitrogen, Paisley, UK) supplemented with 100 units/ml penicillin, 100 μg/ml streptomycin and 10% fetal calf serum. Lymphocytes were incubated at 37° C. in a humidified 5% carbon dioxide atmosphere in the presence of SJG-136 (10^−10−10^−7 M). […]
In this study changes in forward light scatter (FSC) and side light scatter (SSC) characteristics were used to quantify apoptotic and viable cell populations as described previously.^16-18 Typically, lymphocytes show a reduction in FSC (a function of cytoplasmic shrinkage) and an increase in SSC (due to increased granularity) when they undergo apoptosis.^19 The quantitation of apoptosis using an FSC/SSC gating strategy in conjunction with back gating of R-phycoerythrin cyanine 5 (RPE-cy5) labeled CD19+ (Dako) or R-phycoerythrin labeled CD3+ (Dako) lymphocytes allowed simultaneous acquisition of data in viable and apoptotic B-lymphocyte and T-lymphocyte sub-populations, respectively. All LD50 and LD90 values (the concentration of the relevant chemotheraputic agent required to kill 50% and 90% of cells respectively) were derived from the dose-response curves. Duplicate samples were assessed using fluorescein (FITC)-labeled Annexin V to confirm the presence of apoptotic cells in the cell cultures and to validate the FSC/SSC quantitation method.^20
The data obtained in these experiments were evaluated using the equal variance and paired Student's t-test, and correlation coefficients were calculated from least squares linear regression plots. LD50 values were calculated from line of best-fit analysis of the dose response curves. All statistical analyses were performed using Graphpad Prism 3.0 software (Graphpad Software Inc., San Diego, Calif.).
A flow cytometry-based in vitro apoptosis detection assay was used to determine whether SJG-136 could induce apoptotic cell death in B-CLL cells. The characteristic changes in the forward and side light scatter resulting from cellular shrinkage described previously were used to define apoptosis.^19 In addition, Annexin V labeling was also performed in order to verify the light scatter data.

The test system of a further assay is caspase-3. Description: SJG-136 induced caspase-3 activation in B-CLL cells (PhiPhiLux G1D2 substrate, flow cytometry). The assay is classed as cell-based, human. Conditions: inhibitor final concentration 2 μM, SJG-136-treated B-CLL cell cultures. The procedure:
B-CLL cells were incubated at 37° C. in a humidified 5% carbon dioxide atmosphere in the presence of SJG-136 (10^−10−10^−7 M) or fludarabine (10^−7″10^−5 M) for 12, 24 and 48 h. Cells were then harvested by centrifugation and labeled with CD19 RPE-cy5 conjugated antibody. Subsequently the cells were incubated for 1 h at 37° C. in the presence of the PhiPhiLux™ G1D2 substrate (Calbiochem, Nottingham, UK). The substrate contains two fluorophores separated by a quenching linker sequence that is cleaved by active caspase-3. Once cleaved the resulting products fluoresce green and can be quantified using flow cytometry. In additional experiments the caspase-8 inhibitor, Z-IETD-FMK, or the caspase-9 inhibitor, Z-LEHD-FMK, (Cambridge Bioscience, Cambridge, UK) were added to SJG-136-treated cell cultures (final concentration 2 μM) in order to determine whether either of these inhibitors was able to abrogate the apoptotic effects of SJG-136 in B-CLL cells.

Where [3] appears, read: expanded cohort, 46 B-CLL patient samples.
Where [4] appears, read: 34 B-CLL patient samples, 48 h exposure.

“Also recorded” adds a separate entry of the source. Where a SMILES comes first, the peptide text is derived from it. The star is where a group is joined. Cbz = O=C(OCc1ccccc1)*; CH2F = FC*

With `C=C1C[C@H]2C=Nc3cc(OCCCOc4cc5c(cc4OC)C(=O)N4CC(=C)C[C@H]4C=N5)c(OC)cc3C(=O)N2C1` [SJG-136], in the assay with phosphorylated p53, the “phosphorylated p53 (p-p53)” value is “none of the B-CLL cells (n=9) treated with SJG-136 phosphorylated p53”. In addition, the “increase in the thermal denaturation of calf thymus DNA” value in the assay with calf thymus DNA is 33.6 °C. The figures for the “patient samples in which apoptosis was induced” value in the assay on B-CLL cells [1] (46 patient cohort) and in the assay with B-CLL cells [2] (34 patient cohort) were “all 46 patient samples” and “all 34 patient samples”, respectively. The “mean LD50 in previously treated versus untreated patient sub-set” value in the assay with B-CLL cells [1] and in the assay with B-CLL cells [2] was “no effect” each time. Also, the “mean LD50 value (±SD)” value came out at 0.19 nM with B-CLL cells [1] (setting [3]) and 9.06 nM in the assay on B-CLL cells [2] (setting [4]). The entries for the “mean LD90 value (±SD)” value in the assay with B-CLL cells [1] (setting [3]) and in the assay on B-CLL cells [2] (setting [4]) were 38.63 nM and 43.09 nM, respectively. Further, the GADD45 expression result in the assay with GADD45 is “only slightly higher than in the control experiment”. For the same molecule, in the assay with B-CLL cells [2], the “degree of apoptosis in the cell culture” value is “greater degree of apoptosis than either the control experiment or the chlorambucil experiment”.

Consider `CC[C@H](C)[C@H](NC(=O)OCc1ccccc1)C(=O)N[C@@H](CCC(=O)OC)C(=O)N[C@H](C(=O)N[C@@H](CC(=O)OC)C(=O)CF)[C@@H](C)O` [Z-IETD.FMK, Z-IETD-FMK] (Cbz-IE(OMe)TD(OMe)-CH2F), for which the “abrogation of SJG-136-induced caspase-3 activation by added caspase inhibitor” value with caspase-3 is given as “not”.

In the case of `COC(=O)CC[C@H](NC(=O)[C@H](CC(C)C)NC(=O)OCc1ccccc1)C(=O)N[C@@H](Cc1cnc[nH]1)C(=O)N[C@@H](CC(=O)OC)C(=O)CF` [Z-LEHD-FMK] (Cbz-LE(OMe)HD(OMe)-CH2F), the “abrogation of SJG-136-induced caspase-3 activation by added caspase inhibitor” value in the assay on caspase-3 is listed as “partially abrogated”.

Turning to `O=C(O)CCCc1ccc(N(CCCl)CCCl)cc1` [chlorambucil], in the assay on phosphorylated p53, the “phosphorylated p53 (p-p53)” value is “an increase in phosphorylated p53”. Further, the GADD45 expression result in the assay on GADD45 is reported as “much higher; also recorded: marked increase in GADD45 expression”. In addition, the “degree of apoptosis in the cell culture” value with B-CLL cells [2] is on record as “significantly increased over the control experiment”.

Consider `Nc1nc(F)nc2c1ncn2[C@@H]1O[C@H](CO)[C@@H](O)[C@@H]1O` [fludarabine, reference compound], for which the “mean LD50 in previously treated versus untreated patient sub-set” value with B-CLL cells [1] and with B-CLL cells [2] was “significantly higher mean LD50 value” throughout. Further, in the assay with B-CLL cells [2] (compared with remaining patient samples), the “in vitro sensitivity of samples from two treated patients with known p53 mutation” value was “high degree of in vitro resistance”.

Values taken from patent US20080090812A1 (priority 2004, published 2008).
